Results published in patent US20210380586A1, “2-INDOLYL IMIDAZO[4,5-D]PHENANTHROLINE POLYMORPHS AND COMPOSITIONS REGARDING THE SAME” (Aptose Biosciences Inc., priority 2020, published 2021).

Test: Exposure of solids to fixed relative humidity for 11 days, XRPD
Assay type: physicochemical
Settings: for form after exposure to humidity: 11 days
Source text: To determine relative humidity boundaries for conversion between Form 2 and Form 3, solids of Form 2 were exposed to P2O5 conditions (˜0% RH), 11%, and 23% RH. The solids were held at the specified humidities for 11 days to see if the longer duration would result in the presence of Form 3.

form after exposure to humidity (11% RH): no form change
form after exposure to humidity (23% RH): no form change
form after exposure to humidity (P2O5 conditions (~0% RH)): converts to Form 3
relative humidity at and above which physically stable (exposed for over a week): ≥ 11 % RH
SMILES: Cc1[nH]c2ccc(F)cc2c1-c1nc2c3cccnc3c3ncccc3c2[nH]1 [Compound I-hydrate Form 2]
